# Key:
# [1] = test system: cells; assay: Glycogen formation (14-C glucose incorporation into ethanol-precipitable glycogen); assay type: cell-based
# Protocol: The method for glycogen incorporation is similar to that of J. Berger and N. S. Hayes, Anal Biochem. 261: 159-163 (1998), one of several standard references for radiolabeled (14-C) glucose incorporation into ethanol-precipitable glycogen. Into each well was added 1.25 mil of 1% TritonX100. The wells were then placed on a rotating agitator for 30 minutes to dissolve the cells. A 1 ml sample was removed from each well and placed in a 10 ml plastic tube. Into each sample was added 1 ml of a solution containing 18% trichloroacetic acid and 2 mg/ml of glycogen (added as carrier). The treated samples were placed on ice for 20 minutes and then centrifuged for 10 minutes at 10,000 RPM with the supernatant transferred to new plastic tubes. The remaining solids were washed by adding 0.3 ml of the trichloracetic acid-glycogen solution to the pellet, and centrifuged again as before. The combined supernatants were added to 4 ml of ice cold ethanol and 0.25 ml of 2% sodium sulphate (to help precipitate glycogen, as in L. Y. Hung and L. A. Menahan, Biochemical Medicine, Vol. 24: 356-360 (1980)). This was left overnight at 4° C. The precipitate was collected the next day by centrilugation at 10,000 RPM for 10 min. The precipitate was redisolved in water (2 ml) and reprecipitated as before with ethanol and sodium sulphate. The precipitate was dissolved in water, added to scintillation fluid, and radioactivity determined.
# [2] = test system: L6 Myoblasts; assay: Glucose uptake (glucose transport) in cell culture; assay type: cell-based; conditions: for GLUCOSE TRANSPORT: Table 3, control 151
# Protocol: Glucose transport was tested and measured in accordance with the protocol set forth in Amira Kip et al., Induction of Sugar Uptake Response to Insulin by Serum Depletion in Fusing L6 Myoblasts, American Journal of Physiology, Vol. 247, No. 3, Part 1 (September 1984), herein incorporated by reference, except that the cell culture was preincubated for only 2 hours and the cells treated with varying concentrations of pinitol, insulin or a combination thereof as set forth in Tables One through Three. The raw data, in terms of “counts per minute” as measured with a scintillation counter, is provided in Tables One and Two, while calculated data, in terms of “pmol min^−1 mg protein^−1,” is provided in Table Three.
# [3] = Experiment Two, administered alone, at higher concentrations
compound,measurement,setting,value
"Insulin: insulin, used to treat the cells alone or with pinitol as comparison",GLYCOGEN FORMATION 1st Set,"[1]; Table 4, Insulin 10^−6 mM",136.27 nmol/min/mg
same,GLYCOGEN FORMATION 2nd Set,"[1]; Table 4, Insulin 10^−6 mM",96.14 nmol/min/mg
same,GLYCOGEN FORMATION 3rd Set,"[1]; Table 4, Insulin 10^−6 mM",212.09 nmol/min/mg
same,GLYCOGEN FORMATION Average,"[1]; Table 4, Insulin 10^−6 mM, control 52.44 ± 4.58",148.17 ± 58.89 nmol/min/mg
same,GLYCOGEN FORMATION 1st Set,"[1]; Table 4, Insulin 10^−8 mM",68.45 nmol/min/mg
same,GLYCOGEN FORMATION 2nd Set,"[1]; Table 4, Insulin 10^−8 mM",75.36 nmol/min/mg
same,GLYCOGEN FORMATION Average,"[1]; Table 4, Insulin 10^−8 mM, control 52.44 ± 4.58",71.90 ± 4.89 nmol/min/mg
same,GLYCOGEN FORMATION 1st Set,"[1]; Table Five, Insulin 10^−7 M",186.52 nmol/min/mg
same,GLYCOGEN FORMATION 2nd Set,"[1]; Table Five, Insulin 10^−7 M",179.88 nmol/min/mg
same,GLYCOGEN FORMATION 3rd Set,"[1]; Table Five, Insulin 10^−7 M",79.32 nmol/min/mg
same,GLYCOGEN FORMATION 4th Set,"[1]; Table Five, Insulin 10^−7 M",167.44 nmol/min/mg
same,GLYCOGEN FORMATION 5th Set,"[1]; Table Five, Insulin 10^−7 M",136.35 nmol/min/mg
same,GLYCOGEN FORMATION Average,"[1]; Table Five, Insulin 10^−7 M, control 130.18 ± 20.87",149.90 ± 43.91 nmol/min/mg
same,stimulation of glucose transport (conclusion),[2]; [3],significant stimulation in glucose transport
same,COUNTS PER MINUTE (glucose uptake),"[2]; Table 2, Insulin 10^−3 mM, control 3178",4477 counts per minute
same,GLUCOSE TRANSPORT,[2]; Insulin 10^−5 mM,200 pmol · min^−1 · mg protein^−1
CO[C@H]1[C@H](O)[C@@H](O)[C@@H](O)[C@H](O)[C@@H]1O [Pinitol],GLYCOGEN FORMATION 1st Set,"[1]; Table 4, Pinitol 1.4 mM",68.36 nmol/min/mg
same,GLYCOGEN FORMATION 2nd Set,"[1]; Table 4, Pinitol 1.4 mM",79.08 nmol/min/mg
same,GLYCOGEN FORMATION 3rd Set,"[1]; Table 4, Pinitol 1.4 mM",64.37 nmol/min/mg
same,GLYCOGEN FORMATION Average,"[1]; Table 4, Pinitol 1.4 mM, control 52.44 ± 4.58",70.60 ± 7.61 nmol/min/mg
same,GLYCOGEN FORMATION 1st Set,"[1]; Table 4, Pinitol 144.0 mM",57.75 nmol/min/mg
same,GLYCOGEN FORMATION 2nd Set,"[1]; Table 4, Pinitol 144.0 mM",83.14 nmol/min/mg
same,GLYCOGEN FORMATION 3rd Set,"[1]; Table 4, Pinitol 144.0 mM",64.24 nmol/min/mg
same,GLYCOGEN FORMATION Average,"[1]; Table 4, Pinitol 144.0 mM, control 52.44 ± 4.58",68.38 ± 13.19 nmol/min/mg
same,GLYCOGEN FORMATION 1st Set,"[1]; Table Five, Pinitol 1.4 mM",102.40 nmol/min/mg
same,GLYCOGEN FORMATION 2nd Set,"[1]; Table Five, Pinitol 1.4 mM",117.18 nmol/min/mg
same,GLYCOGEN FORMATION 3rd Set,"[1]; Table Five, Pinitol 1.4 mM",183.05 nmol/min/mg
same,GLYCOGEN FORMATION 4th Set,"[1]; Table Five, Pinitol 1.4 mM",113.15 nmol/min/mg
same,GLYCOGEN FORMATION 5th Set,"[1]; Table Five, Pinitol 1.4 mM",124.64 nmol/min/mg
same,GLYCOGEN FORMATION 6th Set,"[1]; Table Five, Pinitol 1.4 mM",158.40 nmol/min/mg
same,GLYCOGEN FORMATION Average,"[1]; Table Five, Pinitol 1.4 mM, control 130.18 ± 20.87",133.14 ± 30.99 nmol/min/mg
same,GLYCOGEN FORMATION 1st Set,"[1]; Table Five, Pinitol 144 mM",123.03 nmol/min/mg
same,GLYCOGEN FORMATION 2nd Set,"[1]; Table Five, Pinitol 144 mM",211.04 nmol/min/mg
same,GLYCOGEN FORMATION 3rd Set,"[1]; Table Five, Pinitol 144 mM",146.53 nmol/min/mg
same,GLYCOGEN FORMATION 4th Set,"[1]; Table Five, Pinitol 144 mM",192.74 nmol/min/mg
same,GLYCOGEN FORMATION 5th Set,"[1]; Table Five, Pinitol 144 mM",97.05 nmol/min/mg
same,GLYCOGEN FORMATION 6th Set,"[1]; Table Five, Pinitol 144 mM",199.85 nmol/min/mg
same,GLYCOGEN FORMATION Average,"[1]; Table Five, Pinitol 144 mM, control 130.18 ± 20.87",161.71 ± 46.39 nmol/min/mg
same,stimulation of glycogen formation (conclusion),[1]; administered alone,significant stimulation in glycogen formation
same,stimulation of glucose transport (conclusion),[2]; [3],significant stimulation in glucose transport
same,COUNTS PER MINUTE (glucose uptake),"[2]; Table 1, Pinitol 0.14 mM, raw data, control 5185",5221 counts per minute
same,COUNTS PER MINUTE (glucose uptake),"[2]; Table 1, Pinitol 1.44 mM, raw data, control 5185",6009 counts per minute
same,COUNTS PER MINUTE (glucose uptake),"[2]; Table 2, Pinitol 1.0 mM, control 3178",6007 counts per minute
same,GLUCOSE TRANSPORT,"[2]; Pinitol 0.14 mM, calculated data",155 pmol · min^−1 · mg protein^−1
same,stimulation of glucose transport (conclusion),"[2]; alone, higher concentrations (e.g., 1.44 mM)",significant stimulation in glucose transport
same,stimulation of glucose transport (conclusion),"[2]; alone, low concentrations (e.g., 0.14 mM)",does not meaningfully stimulate glucose transport

# Reference: patent US6518318B1, “Stimulating transport of glucose into animal tissue by the administration of pinitol” (priority 1999, dated 2003)
